In patent US6784201B2, “Benzothiepines having activity as inhibitors of ileal bile acid transport and taurocholate uptake” (G.D. Searle & Company, priority 1994, dated 2004) one finds IC50 data, which are given here for 62 compounds.

Structures are written as SMILES.

One assay concerns the target T1, human IBAT (Homo sapiens, UniProt Q12908).
T1 construct: expressed in transfected cells; host or cells: Baby hamster kidney (BHK) cells, clone H14
T1 sequence (Q12908 1-348): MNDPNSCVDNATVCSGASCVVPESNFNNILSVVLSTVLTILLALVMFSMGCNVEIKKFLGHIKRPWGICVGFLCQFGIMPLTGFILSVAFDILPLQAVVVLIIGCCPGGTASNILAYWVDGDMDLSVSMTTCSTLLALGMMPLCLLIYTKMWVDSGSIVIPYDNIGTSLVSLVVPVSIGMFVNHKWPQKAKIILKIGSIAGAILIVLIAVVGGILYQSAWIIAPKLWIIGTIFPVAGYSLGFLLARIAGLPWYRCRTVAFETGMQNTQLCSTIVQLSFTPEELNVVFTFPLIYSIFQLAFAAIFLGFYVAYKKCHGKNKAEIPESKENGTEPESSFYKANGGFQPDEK
Nature of the assay: In vitro assay of IBAT-mediated uptake of [14C]-taurocholate (TC) in H14 cells. In kind it is cell-based. The note with it: Human TC IC50. Summed up:
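BHK cells stably expressing human IBAT (H14) were incubated 2 h at 37° C with compound and 3 μM final [14C]-taurocholate in DMEM (4.5 g/L glucose) plus 0.2% fatty acid-free BSA. After cold PBS washes, cell-associated radioactivity was measured by scintillation counting.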
The term IC50 denotes the concentration at which inhibition is half-maximal. In turn, `CCCCC1(CC)CS(=O)(=O)c2ccc(N(C)C)cc2C(c2ccccc2)C1O` (centres unmarked) [Example 1159] yielded an IC50 of 0.06 µM.

Staying with this assay, now noted: read-out: Human TC IC50.
Take `CCCCC1(CCCC)CS(=O)(=O)c2ccc(N(C)C)cc2C(c2ccc(OCc3ccccn3)c(F)c2)C1O` (centres unmarked) [Example 1109]: the IC50 was 0.008 µM.
Turning to `CCCCC1(CCCC)CS(=O)(=O)c2ccc(N(C)C)cc2C(c2cccc(OCCOCCOCC[n+]3ccc(N4CCCC4)cc3)c2)C1O` (centres unmarked) [Example 1110], the IC50 worked out at 0.008 µM.
Turning to `CCCCC1(CCCC)CS(=O)(=O)c2ccc(N(C)C)cc2C(c2ccc(OCCC[n+]3ccc(CCC(=O)O)cc3)c(F)c2)C1O` (centres unmarked) [Example 1111], the IC50 turned out to be 0.008 µM.
On the same count and under the same terms, with `CCCCC1(CCCC)CS(=O)(=O)c2ccc(N(C)C)cc2C(c2ccncc2)C1O` (centres unmarked) [Example 1112] the figure was 0.008 µM; with `CCCCC1(CCCC)CS(=O)(=O)c2ccc(N(C)C)cc2C(c2ccc(OCc3ccncc3)c(F)c2)C1O` (centres unmarked) [Example 1113], 0.009 µM; with `CCCCC1(CCCC)CS(=O)(=O)c2ccc(NC)cc2C(c2cccc(OC)c2)C1O` (centres unmarked) [Example 1114], 0.009 µM.
For the compound `CCCCC1(CCCC)CS(=O)(=O)c2ccc(N(C)C)cc2C(c2ccc(F)cc2)C1O` (centres unmarked) [Example 1115], the IC50 turned out to be 0.0098 µM.
Turning to `CCCCC1(CC)CS(=O)(=O)c2ccc(N(C)C)cc2C(c2cccc(OCCOCCOCC[N+](C)(C)C)c2)C1O` (centres unmarked) [Example 1117], the IC50 worked out at 0.01 µM.
On the same count and under the same terms, with `CCCCC1(CC)CS(=O)(=O)c2ccc(N(C)C)cc2C(c2ccc(O)c(F)c2)C1O` (centres unmarked) [Example 1118] the figure was 0.01 µM.
As to `CCCCC1(CCCC)CS(=O)(=O)c2ccc(N(C)C)cc2C(c2cccc(OCCOCCOCC[n+]3ccc(-c4ccccc4)cc3)c2)C1O` (centres unmarked) [Example 1119], the IC50 was 0.01 µM.
Take `CCCCC1(CCCC)CS(=O)(=O)c2ccc(N(C)C)cc2C(c2cccc(OCCOCCOCC[N+](CC)(CC)CC(OCC)OCC)c2)C1O` (centres unmarked) [Example 1120]: the IC50 amounted to 0.01 µM.
With `CCCCC1(CCCC)CS(=O)(=O)c2ccc(N(C)C)cc2C(c2cccc(OCCOCCOCC[n+]3ccc(C4CC=CCC4)cc3)c2)C1O` (centres unmarked) [Example 1121], the IC50 came to 0.01 µM.
As to `CCCCC1(CCCC)CS(=O)(=O)c2ccc(N(C)C)cc2C(c2ccc(OCCOCC[N+](CC)(CC)CCN(CC)CC)c(F)c2)C1O` (centres unmarked) [Example 1122], the IC50 is 0.011 µM.
Same read-out and setting: with `CCCCC1(CCCC)CS(=O)(=O)c2ccc(N(C)C)cc2C(c2ccccc2)C1O` (centres unmarked) [Example 1123] the figure was 0.011 µM.
As to `CCCCC1(CCCC)CS(=O)(=O)c2ccc(N(C)C)cc2C(c2cccc(OC)c2)C1O` (centres unmarked) [Example 1124], the IC50 was 0.011 µM.
For the compound `CCCCC1(CCCC)CS(=O)(=O)c2ccc(N(C)C)cc2C(c2ccc(OC)c(Cl)c2)C1O` (centres unmarked) [Example 1125], the IC50 was 0.012 µM.
Regarding `CCCCC1(CC)CS(=O)(=O)c2ccc(N(C)C)cc2C(c2cccc(OCCOCCOCCI)c2)C1O` (centres unmarked) [Example 1126], the IC50 was found to be 0.013 µM.
Take `CCCCC1(CCCC)CS(=O)(=O)c2ccc(N(C)C)cc2C(c2cccc(OCCOCCOCC[n+]3ccc(CCC)cc3)c2)C1O` (centres unmarked) [Example 1127]: the IC50 is 0.013 µM.
Consider `CCCCC1(CCCC)CS(=O)(=O)c2ccc(N(C)C)cc2C(c2ccc(O)c(F)c2)C1O` (centres unmarked) [Example 1128], for which the IC50 stood at 0.017 µM.
As for `CCCCC1(CCCC)CS(=O)(=O)c2c(cccc2N(C)C)C(c2ccc(F)cc2)C1O` (centres unmarked) [Example 1129], the IC50 amounted to 0.018 µM.
Regarding `CCCCC1(CCCC)CS(=O)(=O)c2ccc(N(C)C)cc2C(c2ccc(F)c(Cl)c2)C1O` (centres unmarked) [Example 1130], the IC50 worked out at 0.018 µM.
Still for that read-out and setting: to `CCCCC1(CC)CS(=O)(=O)c2ccc(N(C)C)cc2C(c2ccc(OC)cc2)C1O` (centres unmarked) [Example 1131] belongs 0.02 µM.
For the compound `CCCCC1(CCCC)CS(=O)(=O)c2ccc(N(C)C)cc2C(c2cccc(OCCOCCOCC[n+]3ccc4c(c3)CCCC4)c2)C1O` (centres unmarked) [Example 1132], the IC50 is 0.02 µM.
`CCCCC1(CCCC)CS(=O)(=O)c2ccc(N(C)C)cc2C(c2ccc(CC#N)cc2)C1O` (centres unmarked) [Example 1133]: the IC50 came to 0.02 µM.
In the case of `CCCCC1(CC)CS(=O)(=O)c2ccc(N(C)C)cc2C(c2cccc(OCCCCOC(C)=O)c2)C1O` (centres unmarked) [Example 1134], the IC50 was 0.02 µM.
Regarding `CCCCC1(CCCC)CS(=O)(=O)c2ccc(N(C)C)cc2C(c2ccc(OC)c(OC)c2)C1O` (centres unmarked) [Example 1135], the IC50 is 0.021 µM.
As to `CCCCC1(CCCC)CS(=O)(=O)c2ccc(N(C)C)cc2C(c2cccc(OCCOCCOCCI)c2)C1O` (centres unmarked) [Example 1136], the IC50 amounted to 0.021 µM.
In the case of `CCCCC1(CCCC)CS(=O)(=O)c2c(NN(C)C)cccc2C(c2ccc(F)cc2)C1O` (centres unmarked) [Example 1137], the IC50 worked out at 0.021 µM.
As to `CCCCC1(CCCC)CS(=O)(=O)c2ccc(N(C)C)cc2C(c2cccc(OCCOCCOCC[n+]3ccc(C(C)(C)C)cc3)c2)C1O` (centres unmarked) [Example 1138], the IC50 is 0.022 µM.
With `CCCCC1(CCCC)CS(=O)(=O)c2ccc(N(C)C)cc2C(c2ccc(F)c(F)c2)C1O` (centres unmarked) [Example 1139], the IC50 stood at 0.022 µM.
As for `CCCCC1(CCCC)CS(=O)(=O)c2ccc(NN(C)C)cc2C(c2cccc(OC)c2)C1O` (centres unmarked) [Example 1140], the IC50 stood at 0.023 µM.
For `CCCCC1(CCCC)CS(=O)(=O)c2ccc(N(C)CC)cc2C(c2ccc(F)cc2)C1O` (centres unmarked) [Example 1141], the half-maximal inhibitory concentration (IC50) was 0.023 µM.
On to `CCCCC1(CCCC)CS(=O)(=O)c2ccc(N(C)C)cc2C(c2ccc(OCCOCCSCCN(CC)CC)c(F)c2)C1O` (centres unmarked) [Example 1142], for which the IC50 is 0.024 µM.
For the compound `CCCCC1(CCCC)CS(=O)(=O)c2c(cccc2N(C)C)C(c2ccc(OC)cc2)C1O` (centres unmarked) [Example 1145], the IC50 was 0.029 µM.
For the compound `CCCCC1(CCCC)CS(=O)(=O)c2ccc(N(C)C)cc2C(c2ccc(OCCCCCCCCCC[N+](C)(C)C)cc2)C1O` (centres unmarked) [Example 1146], the IC50 came out at 0.029 µM.
In the case of `CCCCC1(CCCC)CS(=O)(=O)c2ccc(N(CC)CC)cc2C(c2cccc(OC)c2)C1O` (centres unmarked) [Example 1147], the concentration for half-maximal inhibition (IC50) amounted to 0.029 µM.
In the case of `CCCCC1(CCCC)CS(=O)(=O)c2ccc([S+](C)C)cc2C(c2ccc(F)cc2)C1O` (centres unmarked) [Example 1148], the IC50 was 0.03 µM.
Turning to `CCCCC1(CCCC)CS(=O)(=O)c2ccc(NCC)cc2C(c2ccc(F)cc2)C1O` (centres unmarked) [Example 1149], the IC50 was found to be 0.03 µM.
Turning to `CCCCC1(CCCC)CS(=O)(=O)c2ccc(N(C)CC)cc2C(c2cccc(OC)c2)C1O` (centres unmarked) [Example 1150], the IC50 is 0.03 µM.
Regarding `CCCCC1(CCCC)CS(=O)(=O)c2ccc(N(C)COCC)cc2C(c2ccccc2)C1O` (centres unmarked) [Example 1152], the IC50 is 0.036 µM.
Still for that read-out and setting: to `CCCCC1(CCCC)CS(=O)(=O)c2ccc(NC)cc2C(c2ccc(F)cc2)C1O` (centres unmarked) [Example 1153] belongs 0.037 µM; to `CCCCC1(CCCC)CS(=O)(=O)c2c(OC)cccc2C(c2cccc(OC)c2)C1O` (centres unmarked) [Example 1154], 0.037 µM.
As to `CCCCC1(CCCC)CS(=O)(=O)c2ccc(C)cc2C(c2ccc(F)cc2)C1O` (centres unmarked) [Example 1155], the IC50 came out at 0.039 µM.
In the case of `CCCCC1(CCCC)CS(=O)(=O)c2ccc(SC)cc2C(c2ccc(F)cc2)C1O` (centres unmarked) [Example 1156], the IC50 is 0.039 µM.
With `CCCCC1(CCCC)CS(=O)(=O)c2c(cc(F)cc2N(C)C)C(c2ccc(F)cc2)C1O` (centres unmarked) [Example 1157], the IC50 came to 0.04 µM.
`CCCCC1(CCCC)CS(=O)(=O)c2ccc(OC)cc2C(c2ccncc2)C1O` (centres unmarked) [Example 1158]: the IC50 was 0.06 µM.
As for `CCCCC1(CCCC)CS(=O)(=O)c2ccc(N(CC)CC)cc2C(c2ccc(F)cc2)C1O` (centres unmarked) [Example 1160], the IC50 was found to be 0.062 µM.
Turning to `CCCCC1(CCCC)CS(=O)(=O)c2ccc(N(C)C)cc2C(c2cc(Cl)c(OC)c(Cl)c2)C1O` (centres unmarked) [Example 1161], the IC50 was found to be 0.063 µM.
In the case of `CCCCC1(CCCC)CS(=O)(=O)c2ccc(N(C)C)cc2C(c2ccccc2)C1O` (centres unmarked) [Example 1162], the IC50 stood at 0.063 µM.
The same measure, in the same setting: to `CCCCC1(CCCC)CS(=O)(=O)c2ccc(OC)cc2C(c2cccc(N(C)C)c2)C1O` (centres unmarked) [Example 1163] belongs 0.09 µM; to `CCCCC1(CCCC)CS(=O)(=O)c2ccc(OC)cc2C(c2ccncc2)C1O` (centres unmarked) [Example 1164], 0.093 µM.
`CCCCC1(CCCC)CS(=O)(=O)c2ccc([N+](C)(C)C)cc2C(c2ccc(OC)c(F)c2)C1O` (centres unmarked) [Example 1165]: the IC50 came to 0.11 µM.
On to `CCCCC1(CCCC)CS(=O)(=O)c2ccc([N+](C)(C)C)cc2C(c2cccc(O)c2)C1O` (centres unmarked) [Example 1166], for which the concentration for half-maximal inhibition (IC50) was determined as 0.11 µM.
Turning to `C=CCOc1ccc(C2c3cc(N(C)C)ccc3S(=O)(=O)CC(CCCC)(CCCC)C2O)cc1Cl` (centres unmarked) [Example 1167], the IC50 was 0.12 µM.
Consider `CCCCC1(CCCC)CS(=O)(=O)c2ccc([N+](C)(C)C)cc2C(c2ccc(O)cc2)C1O` (centres unmarked) [Example 1168], for which the IC50 worked out at 0.12 µM.
The same measure, in the same setting: with `CCCCC1(CCCC)CS(=O)(=O)c2cc(N(C)C)ccc2C(c2ccccc2)C1O` (centres unmarked) [Example 1169] the figure was 0.12 µM; with `CCCCC1(CCCC)CS(=O)(=O)c2ccc(N(C)C)cc2C(c2ccc(OS(=O)(=O)C(F)(F)F)cc2)C1O` (centres unmarked) [Example 1171], 0.14 µM; with `CCCCC1(CCCC)CS(=O)(=O)c2ccc(OC)cc2C(c2ccncc2)C1O` (centres unmarked) [Example 1172], 0.14 µM.
`CCCCC1(CC)CS(=O)(=O)c2ccc(-c3ccccc3)cc2C(c2cccc(OC)c2)C1O` (centres unmarked) [Example 1174]: the IC50 came to 0.15 µM.
Regarding `CCCCC1(CC)CS(=O)(=O)c2ccc(S(C)(=O)=O)cc2C(c2cccc(OC)c2)C1O` (centres unmarked) [Example 1175], the IC50 is 0.17 µM.
Same read-out and setting: to `CCCCC1(CCCC)CS(=O)(=O)c2c(F)cccc2C(c2ccc(F)cc2)C1O` (centres unmarked) [Example 1176] belongs 0.18 µM.
